Data taken from the NIST ThermoML archive (doi:10.1016/j.tca.2006.10.025).
Numbers after ± are expanded uncertainties.

Experiments:
[1] = molar heat capacity at constant pressure; xn = mol fraction of the nth substance listed; conditions: 303.15 K, 101 kPa, Liquid, Small sample (50 mg) DSC
[2] = excess molar enthalpy (molar enthalpy of mixing); xn = mol fraction of the nth substance listed; conditions: 303.15 K, 101 kPa, Liquid, Flow calorimetry

C[S+](C)[O-] [dimethyl sulfoxide] + CCCO
Conditions | excess molar enthalpy [kcal/mol] | molar heat capacity at constant pressure [J/K/mol]
[1], x1 = 0.0514 | – | 146.2 ± 2.3
[1], x1 = 0.1127 | – | 144 ± 2.2
[1], x1 = 0.2114 | – | 141.8 ± 2.2
[1], x1 = 0.3163 | – | 142.6 ± 2.2
[1], x1 = 0.418 | – | 139.9 ± 2.2
[1], x1 = 0.5029 | – | 140.6 ± 2.2
[1], x1 = 0.6216 | – | 140.7 ± 2.2
[1], x1 = 0.7068 | – | 141.6 ± 2.2
[1], x1 = 0.7975 | – | 144.2 ± 2.2
[1], x1 = 0.8537 | – | 145.6 ± 2.3
[1], x1 = 0.8994 | – | 146.5 ± 2.3
[1], x1 = 0.9429 | – | 147.6 ± 2.3
[2], x1 = 0.0421 | 0.0449 ± 0.0012 | –
[2], x1 = 0.0808 | 0.0803 ± 0.00143 | –
[2], x1 = 0.1165 | 0.109 ± 0.00167 | –
[2], x1 = 0.1495 | 0.134 ± 0.00191 | –
[2], x1 = 0.2086 | 0.163 ± 0.00215 | –
[2], x1 = 0.2601 | 0.184 ± 0.00239 | –
[2], x1 = 0.3452 | 0.204 ± 0.00263 | –
[2], x1 = 0.4127 | 0.21 ± 0.00263 | –
[2], x1 = 0.5133 | 0.205 ± 0.00263 | –
[2], x1 = 0.6128 | 0.189 ± 0.00239 | –
[2], x1 = 0.6783 | 0.171 ± 0.00215 | –
[2], x1 = 0.7598 | 0.136 ± 0.00191 | –
[2], x1 = 0.8084 | 0.118 ± 0.00167 | –
[2], x1 = 0.8634 | 0.0884 ± 0.0012 | –
[2], x1 = 0.894 | 0.0722 ± 0.0012 | –
[2], x1 = 0.9268 | 0.0521 ± 0.000956 | –
[2], x1 = 0.962 | 0.0282 ± 0.000717 | –

C[S+](C)[O-] [dimethyl sulfoxide] + CCO
Conditions | excess molar enthalpy [kcal/mol] | molar heat capacity at constant pressure [J/K/mol]
[1], x1 = 0.0356 | – | 117.9 ± 1.8
[1], x1 = 0.0504 | – | 119.1 ± 1.8
[1], x1 = 0.1092 | – | 121.7 ± 1.9
[1], x1 = 0.1636 | – | 121.8 ± 1.9
[1], x1 = 0.2647 | – | 124.6 ± 1.9
[1], x1 = 0.3441 | – | 126.3 ± 2
[1], x1 = 0.4469 | – | 129.9 ± 2
[1], x1 = 0.557 | – | 133 ± 2.1
[1], x1 = 0.6498 | – | 136.8 ± 2.1
[1], x1 = 0.7615 | – | 141 ± 2.2
[1], x1 = 0.8872 | – | 146.6 ± 2.3
[1], x1 = 0.9408 | – | 148 ± 2.3
[2], x1 = 0.0332 | 0.0294 ± 0.000956 | –
[2], x1 = 0.0642 | 0.0514 ± 0.000956 | –
[2], x1 = 0.0933 | 0.0672 ± 0.0012 | –
[2], x1 = 0.1207 | 0.0813 ± 0.0012 | –
[2], x1 = 0.1707 | 0.0978 ± 0.00143 | –
[2], x1 = 0.2154 | 0.109 ± 0.00143 | –
[2], x1 = 0.2917 | 0.12 ± 0.00167 | –
[2], x1 = 0.3543 | 0.122 ± 0.00167 | –
[2], x1 = 0.4516 | 0.117 ± 0.00143 | –
[2], x1 = 0.5527 | 0.106 ± 0.00143 | –
[2], x1 = 0.6222 | 0.0949 ± 0.0012 | –
[2], x1 = 0.7119 | 0.077 ± 0.0012 | –
[2], x1 = 0.7671 | 0.0652 ± 0.000956 | –
[2], x1 = 0.8317 | 0.0483 ± 0.000717 | –
[2], x1 = 0.8682 | 0.0375 ± 0.000717 | –
[2], x1 = 0.9081 | 0.0282 ± 0.000478 | –
[2], x1 = 0.9518 | 0.0148 ± 0.000478 | –
